Here are results for 17 compounds from article PMC7619385 (ACS infectious diseases, 2025).

This experiment deals with T1, LmxCLK1 (Leishmania mexicana, UniProt E9AMP2).
T1 sequence (E9AMP2 1-422): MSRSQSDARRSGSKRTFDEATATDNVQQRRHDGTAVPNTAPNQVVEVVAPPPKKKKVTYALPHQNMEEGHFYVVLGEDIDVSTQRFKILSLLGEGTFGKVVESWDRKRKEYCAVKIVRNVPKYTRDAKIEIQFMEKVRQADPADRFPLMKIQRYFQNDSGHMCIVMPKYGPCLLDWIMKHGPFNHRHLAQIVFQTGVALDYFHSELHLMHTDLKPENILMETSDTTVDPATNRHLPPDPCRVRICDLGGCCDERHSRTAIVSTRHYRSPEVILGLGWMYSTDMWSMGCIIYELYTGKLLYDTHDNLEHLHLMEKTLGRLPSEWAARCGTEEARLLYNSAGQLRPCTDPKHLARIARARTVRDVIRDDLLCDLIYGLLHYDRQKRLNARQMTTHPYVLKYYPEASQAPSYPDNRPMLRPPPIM
Put plainly: biochemical. It counts as binding.

[1] abbreviates: DSF, 10 µM compound, 2 µM LmxCLK1, Run 1.
Where [2] appears, read: DSF, 10 µM compound, 2 µM LmxCLK1, Run 2.
The mark [3] stands for this setting: DSF, 10 µM compound, 2 µM LmxCLK1, mean of two runs.
Where [4] appears, read: DSF, 10 µM compound, 2 µM LmxCLK1, Run 1, read-out: ΔTm Run 1.
The mark [5] stands for this setting: DSF, 10 µM compound, 2 µM LmxCLK1, Run 2, read-out: ΔTm Run 2.
[6] abbreviates: DSF, 10 µM compound, 2 µM LmxCLK1, mean of two runs, read-out: ΔTm Average.

Read-outs that look alike come from different tables or passages of the source.

Regarding `CNC(=O)Nc1ccc(-c2nc(N3CC4CCC(C3)O4)c3cnn(C4CCC5(CC4)OCCO5)c3n2)cc1` [WYE-125132 (WYE-132)], the “ΔTm Run 1” value under setting [1] came to 0.2 °C. The “ΔTm Run 2” value under setting [2] is -0.1 °C. Further, the “ΔTm Average” value under setting [3] was 0.0 °C.

What is called ΔTm is the shift of the melting midpoint relative to a reference. Turning to `C=CC(=O)Nc1cccc(Oc2nc(Nc3ccc(N4CCN(C)CC4)cc3OC)ncc2Cl)c1` [WZ4002], the ΔTm at 10 µM is -0.1 °C under setting [4], -0.3 °C under setting [5] and -0.2 °C under setting [6].

`CCC(=O)Nc1cccc(Oc2nc(Nc3ccc(N4CCN(C)CC4)cc3OC)ncc2Cl)c1` [WZ4003]: the ΔTm at 10 µM was 0.1 °C under setting [4], -0.1 °C under setting [5] and 0 °C under setting [6].

For `O=C(Nc1ccc(-c2ccnc(Nc3ccc(N4CCOCC4)cc3)n2)cc1)C1CCCN1` (centres unmarked) [XL019], the ΔTm at 10 µM was 0.6 °C under setting [4], 0.4 °C under setting [5] and 0.5 °C under setting [6].

As for `CCOc1cc(N2CCC(O)CC2)ccc1Nc1ncc2c(n1)N(C)c1ccccc1C(=O)N2C` [XMD8-92], the “ΔTm Average” value is reported as -0.3, the “ΔTm Run 1” value is given as -0.2 and the “ΔTm Run 2” value is recorded as -0.5.

In the case of `C[C@@H](N)[C@H]1CC[C@H](C(=O)Nc2ccncc2)CC1.Cl.Cl` [Y-27632 2HCl], the “ΔTm Run 1” value under setting [1] turned out to be 0.1 °C. Also, the “ΔTm Run 2” value under setting [2] was 0.1 °C. Moreover, under setting [3], the “ΔTm Average” value amounted to 0.1 °C.

With `Nc1ccc(C(=O)Nc2cccc(-c3nc(N4CCOCC4)c4oc5ncccc5c4n3)c2)cn1` [YM201636], the ΔTm Run 1 came out at 0.4 °C and the ΔTm Run 2 is 0 °C.

Consider `Cc1cc(C)nc(NS(=O)(=O)c2ccc(NC(=S)NC(=O)COc3ccc(Br)cc3Cl)cc2)n1` [ZCL278], for which the “ΔTm Run 1” value under setting [1] turned out to be 0.1 °C. For the same compound, the “ΔTm Run 2” value under setting [2] is -0.1 °C. Moreover, the “ΔTm Average” value under setting [3] was 0.0 °C.

Turning to `COc1cc2ncnc(Nc3ccc(Cl)cc3F)c2cc1OC` [ZM 306416], under setting [1], the “ΔTm Run 1” value came out at 0.2 °C. The “ΔTm Run 2” value under setting [2] was 0.0 °C. The “ΔTm Average” value under setting [3] stood at 0.1 °C.

Regarding `Cc1cc(F)c(Nc2ncnc3cc(OCc4ccccc4)ccc23)cc1O.Cl` [ZM 323881 HCl], under setting [1], the “ΔTm Run 1” value came to 0.1 °C. For the same compound, the “ΔTm Run 2” value under setting [2] came out at 0.0 °C. Further, under setting [3], the “ΔTm Average” value was found to be 0.0 °C.

In the case of `COc1cc2c(Nc3ccc(NC(=O)c4ccccc4)cc3)ncnc2cc1OCCCN1CCOCC1` [ZM 447439], the “ΔTm Run 1” value under setting [1] is 0.0 °C. Also, the “ΔTm Run 2” value under setting [2] is -0.2 °C. In addition, the “ΔTm Average” value under setting [3] is -0.1 °C.

Turning to `FC(F)c1nc2ccccc2n1-c1nc(N2CCOCC2)nc(N2CCOCC2)n1` [ZSTK474], the ΔTm at 10 µM runs as follows: under setting [4], 0 °C; under setting [5], 0 °C; under setting [6], 0 °C.

`CO[C@H]1C[C@@H]2CC[C@@H](C)[C@@](O)(O2)C(=O)C(=O)N2CCCC[C@H]2C(=O)O[C@H]([C@H](C)C[C@@H]2CC[C@H](n3cnnn3)[C@H](OC)C2)CC(=O)[C@H](C)/C=C(\C)[C@@H](O)[C@@H](OC)C(=O)[C@H](C)C[C@H](C)/C=C/C=C/C=C/1C` [Zotarolimus(ABT-578)]: the “ΔTm Run 1” value under setting [1] was 0.2 °C. For the same compound, the “ΔTm Run 2” value under setting [2] came out at 0.0 °C. Besides, the “ΔTm Average” value under setting [3] was 0.1 °C.

CA75 (GAK): the “ΔTm Average” value is listed as -0.1, the “ΔTm Run 1” value is given as -0.2 and the ΔTm Run 2 is 0 °C.

HER2-Inhibitor-1: under setting [1], the “ΔTm Run 1” value turned out to be 0.2 °C. Further, the “ΔTm Run 2” value under setting [2] is -0.1 °C. In addition, under setting [3], the “ΔTm Average” value is 0.1 °C.

Consider PHT-427, for which, under setting [1], the “ΔTm Run 1” value was found to be 0.4 °C. Further, the “ΔTm Run 2” value under setting [2] worked out at 0.3 °C. In addition, under setting [3], the “ΔTm Average” value worked out at 0.3 °C.

Turning to S-Ruxolitinib (INCB018424), the “ΔTm Run 1” value under setting [1] came out at 0.6 °C. In addition, the “ΔTm Run 2” value under setting [2] is 0.6 °C. For the same compound, the “ΔTm Average” value under setting [3] worked out at 0.6 °C.
